Measurements: ChEMBL document CHEMBL1201862, “PubChem BioAssay data set” (2004)
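A five-concentration, 48-hour dose response in 96-well plates underlies each endpoint, interpolated linearly between surrounding concentrations. Here, GI50 denotes the concentration required for 50% inhibition of growth.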 The source made the active and inactive calls. Rule as the data show it: active = GI50 up to about 1.1 µM and inactive = higher.

Key:
Experiment in all cases: inhibition of tumour cell growth, NCI panel, 48 h
CAKI-1 = system: CAKI-1
EKVX = system: EKVX
HCT-15 = system: HCT-15
NCI-H522 = system: NCI-H522
OVCAR-3 = system: OVCAR-3
SR = system: SR
786-0 = system: 786-0
PC-3 = system: PC-3
SK-MEL-28 = system: SK-MEL-28
SK-MEL-2 = system: SK-MEL-2
SF-295 = system: SF-295
HL-60 = system: HL-60
OVCAR-4 = system: OVCAR-4
MOLT-4 = system: MOLT-4
NCI-H460 = system: NCI-H460
DU-145 = system: DU-145
A549 = system: A549
RPMI-8226 = system: RPMI-8226
HOP-92 = system: HOP-92
Hs-578T = system: Hs-578T

SMILES | GI50 (CAKI-1) | GI50 (EKVX) | GI50 (HCT-15) | GI50 (NCI-H522) | GI50 (OVCAR-3) | GI50 (SR) | GI50 (786-0) | GI50 (PC-3) | GI50 (SK-MEL-28) | GI50 (SK-MEL-2) | GI50 (SF-295) | GI50 (HL-60) | GI50 (OVCAR-4) | GI50 (MOLT-4) | GI50 (NCI-H460) | GI50 (DU-145) | GI50 (A549) | GI50 (RPMI-8226) | GI50 (HOP-92) | GI50 (Hs-578T)
O=c1c2ccccc2n2c(S)nnc2n1-c1ccccc1 | > 100 µM (inactive) | > 100 µM (inactive) | > 100 µM | > 100 µM (inactive) | > 100 µM (inactive) | > 100 µM (inactive) | > 100 µM (inactive) | > 100 µM (inactive) | > 100 µM (inactive) | > 100 µM (inactive) | > 100 µM (inactive) | > 100 µM (inactive) | > 100 µM (inactive) | > 100 µM (inactive) | > 100 µM (inactive) | > 100 µM (inactive) | > 100 µM (inactive) | – | – | –
O=C(NCCCCCCNC(=O)c1cccc2ccccc12)c1cccc2ccccc12 | 21.3 µM (inactive) | 20.5 µM (inactive) | > 100 µM | 17.9 µM (inactive) | 28.9 µM (inactive) | > 100 µM (inactive) | 23.7 µM (inactive) | – | > 100 µM (inactive) | 12.2 µM (inactive) | 1.93 µM (inactive) | > 100 µM (inactive) | 14.4 µM (inactive) | > 100 µM (inactive) | 42.5 µM (inactive) | – | 35.4 µM (inactive) | > 100 µM (inactive) | 7.96 µM (inactive) | –
COc1ccc2c3c(n(Cc4ccccc4)c(=O)c2c1)-c1cc(OC)c(OC)cc1C3C (configuration not stated) | 28.1 µM (inactive) | 10.6 µM (inactive) | 28.1 µM | 9.08 µM (inactive) | 15 µM (inactive) | 5.12 µM (inactive) | 7.45 µM (inactive) | – | 43.5 µM (inactive) | 17 µM (inactive) | 11.6 µM (inactive) | > 46.8 µM (inactive) | 6.61 µM (inactive) | 8.32 µM (inactive) | 4.71 µM (inactive) | – | 18.6 µM (inactive) | 14.5 µM (inactive) | 14.4 µM (inactive) | –
Clc1ccc(C2=NOC3C4CCC(C4)C23)cc1 (configuration not stated) | > 100 µM (inactive) | > 100 µM (inactive) | > 100 µM | 59.8 µM (inactive) | > 100 µM (inactive) | 61.2 µM (inactive) | > 100 µM (inactive) | – | > 100 µM (inactive) | > 100 µM (inactive) | 73.1 µM (inactive) | 56 µM (inactive) | > 100 µM (inactive) | 59.4 µM (inactive) | > 100 µM (inactive) | – | > 100 µM (inactive) | 87.1 µM (inactive) | > 100 µM (inactive) | –
O=C1NC(=S)N/C1=C/c1c(-c2ccccc2)[nH]c2ccccc12 | 18.2 µM (inactive) | 14.5 µM (inactive) | 14.7 µM | 13.2 µM (inactive) | 16.1 µM (inactive) | 6.32 µM (inactive) | 14 µM (inactive) | 12.9 µM (inactive) | 16.6 µM (inactive) | 13.2 µM (inactive) | 12.8 µM (inactive) | 7.31 µM (inactive) | 16.1 µM (inactive) | 12.4 µM (inactive) | 12.9 µM (inactive) | – | – | 8.73 µM (inactive) | – | 16.6 µM (inactive)
Cc1cc2c(cc1Cl)SC(NS(=O)(=O)c1ccc(Cl)cc1)=NS2(=O)=O | > 100 µM (inactive) | 38.4 µM (inactive) | > 100 µM | 21.7 µM (inactive) | 19.3 µM (inactive) | 10.3 µM (inactive) | > 100 µM (inactive) | – | > 100 µM (inactive) | 54 µM (inactive) | 23 µM (inactive) | > 100 µM (inactive) | 39.4 µM (inactive) | 16.9 µM (inactive) | 79.8 µM (inactive) | 83.9 µM (inactive) | > 100 µM (inactive) | 57 µM (inactive) | 16 µM (inactive) | 41.5 µM (inactive)
CN(c1ccccc1)c1cc2ccccc2nn1 | > 100 µM (inactive) | 65.8 µM (inactive) | > 100 µM | 27.6 µM (inactive) | 53.8 µM (inactive) | > 100 µM (inactive) | > 100 µM (inactive) | – | > 100 µM (inactive) | > 100 µM (inactive) | 67.9 µM (inactive) | 30.5 µM (inactive) | > 100 µM (inactive) | 52.7 µM (inactive) | > 100 µM (inactive) | – | > 100 µM (inactive) | 70 µM (inactive) | > 100 µM (inactive) | –
COC(=O)C1=CC2C(=O)c3ccccc3C1(c1ccccc1)N2C1CCCCC1 (configuration not stated) | 20.5 µM (inactive) | 34.9 µM (inactive) | 27 µM | 27.9 µM (inactive) | 23.6 µM (inactive) | – | > 100 µM (inactive) | 9.62 µM (inactive) | 17.6 µM (inactive) | 12.3 µM (inactive) | 16 µM (inactive) | 11.6 µM (inactive) | 17.1 µM (inactive) | 7.55 µM (inactive) | 14.8 µM (inactive) | 27 µM (inactive) | 20 µM (inactive) | – | 22.6 µM (inactive) | –
C=C1c2[nH]c3ccccc3c2CC(C(=O)O)N1C(O)c1ccc(S(=O)(=O)O)cc1 (configuration not stated) | > 100 µM (inactive) | – | – | > 100 µM (inactive) | > 100 µM (inactive) | > 100 µM (inactive) | > 100 µM (inactive) | – | > 100 µM (inactive) | > 100 µM (inactive) | > 100 µM (inactive) | > 100 µM (inactive) | > 100 µM (inactive) | > 100 µM (inactive) | > 100 µM (inactive) | – | > 100 µM (inactive) | > 100 µM (inactive) | 22.1 µM (inactive) | –
Nc1ccc2c(c1)Oc1c(F)c(F)cc3c(=O)c(C(=O)O)cn-2c13 | 32.1 µM (inactive) | > 100 µM (inactive) | 46.2 µM | 29.9 µM (inactive) | 22.1 µM (inactive) | 34.6 µM (inactive) | 28.1 µM (inactive) | – | 40.3 µM (inactive) | 80.2 µM (inactive) | – | 38.9 µM (inactive) | 40.1 µM (inactive) | 24 µM (inactive) | – | – | 32.9 µM (inactive) | 25.2 µM (inactive) | 25.1 µM (inactive) | –
OC1COC2CC(Nc3ccccn3)OC12 (configuration not stated) | > 100 µM (inactive) | > 100 µM (inactive) | > 100 µM | > 100 µM (inactive) | > 100 µM (inactive) | > 100 µM (inactive) | > 100 µM (inactive) | > 100 µM (inactive) | > 100 µM (inactive) | > 100 µM (inactive) | > 100 µM (inactive) | – | > 100 µM (inactive) | > 100 µM (inactive) | > 100 µM (inactive) | – | > 100 µM (inactive) | > 100 µM (inactive) | – | > 100 µM (inactive)
Cc1ccccc1NC(=O)CC(=O)n1nc(-c2ccccc2)c(/N=N/c2ccc([N+](=O)[O-])cc2)c1-c1ccccc1 | 5.87 µM (inactive) | 20.2 µM (inactive) | – | 18.9 µM (inactive) | 15.7 µM (inactive) | 25.1 µM (inactive) | 22.1 µM (inactive) | – | 27.3 µM (inactive) | 25.3 µM (inactive) | 17.4 µM (inactive) | 19.9 µM (inactive) | 23.6 µM (inactive) | 16.1 µM (inactive) | 31.5 µM (inactive) | – | 16.1 µM (inactive) | 19.2 µM (inactive) | 11.4 µM (inactive) | –
CC1=C(C(=O)NCc2ccccc2)C(c2ccccc2C)C(C(=O)NCc2ccccc2)=C(C)N1 | 50.8 µM (inactive) | 58.7 µM (inactive) | 17.7 µM | 28.4 µM (inactive) | 23.5 µM (inactive) | 24.5 µM (inactive) | 25.1 µM (inactive) | – | 27.6 µM (inactive) | 18.5 µM (inactive) | 29.7 µM (inactive) | 21 µM (inactive) | 27.2 µM (inactive) | 27.1 µM (inactive) | 19.5 µM (inactive) | – | 49.8 µM (inactive) | 29.9 µM (inactive) | 39 µM (inactive) | –
COC(=O)C(=O)C(CC(=O)Nc1ccc(C)cc1)C(=O)OC (configuration not stated) | > 100 µM (inactive) | > 100 µM (inactive) | > 100 µM | > 100 µM (inactive) | > 100 µM (inactive) | > 100 µM (inactive) | > 100 µM (inactive) | – | > 100 µM (inactive) | > 100 µM (inactive) | > 100 µM (inactive) | > 100 µM (inactive) | > 100 µM (inactive) | > 100 µM (inactive) | > 100 µM (inactive) | – | > 100 µM (inactive) | > 100 µM (inactive) | > 100 µM (inactive) | –
Cc1cc(Br)c(O)c(-c2cscn2)c1 | 24.2 µM (inactive) | 33.1 µM (inactive) | 5.57 µM | – | 52.5 µM (inactive) | – | 2.43 µM (inactive) | 10.3 µM (inactive) | – | 19.3 µM (inactive) | 23.2 µM (inactive) | 3.66 µM (inactive) | 14.6 µM (inactive) | – | 21.4 µM (inactive) | – | 20.2 µM (inactive) | 4.81 µM (inactive) | 19.5 µM (inactive) | 19.3 µM (inactive)
CC(C)C1COC(c2cccc(C3=N[C@@H](C(C)C)CO3)n2)=N1 (some centres not stated) | > 100 µM (inactive) | > 100 µM (inactive) | > 100 µM | > 100 µM (inactive) | > 100 µM (inactive) | > 100 µM (inactive) | > 100 µM (inactive) | – | > 100 µM (inactive) | > 100 µM (inactive) | > 100 µM (inactive) | > 100 µM (inactive) | > 100 µM (inactive) | > 100 µM (inactive) | > 100 µM (inactive) | – | > 100 µM (inactive) | > 100 µM (inactive) | > 100 µM (inactive) | –
